Species: Rattus norvegicus
Test: Open TG-GATES - Regimen: Daily Repeat
Format: toxicity, organism-based, Sprague-Dawley
Design: regimen Daily Repeat, gender Male, age 6 weeks
Conditions: in vivo, po, route gavage; for APTT / Bas / Eos / Fbg / Hb / Ht / Lym / MCH / MCHC / MCV / Mono / Neu / PT / Plat / RBC / Ret / WBC: tissue Blood; for KIDNEY_L / KIDNEY_R / KIDNEY_TOTAL: tissue Kidney; for LIVER: tissue Liver; for A/G / ALP / ALT / AST / BUN / CRE / Ca / Cl / DBIL / GLC / IP / K / LDH / Na / PL / RALB / TBIL / TC / TG / TP / gamma-GTP: tissue Plasma
[1] = 100 mg/kg, 72 h, dose level Middle, time 3 day
[2] = 100 mg/kg, […], dose level Middle, time 7 day
[3] = 100 mg/kg, […], dose level Middle, time 14 day
[4] = 100 mg/kg, […], dose level Middle, time 28 day
[5] = 200 mg/kg, 72 h, dose level High, time 3 day
[6] = 200 mg/kg, […], dose level High, time 7 day
[7] = 200 mg/kg, […], dose level High, time 14 day
[8] = 200 mg/kg, […], dose level High, time 28 day

NNC(=O)c1ccncc1 [ISONIAZID]
TERMINAL_BW [1]: 217.2 g
APTT [1]: 15.8 s
Bas [1]: 0%
Eos [1]: 0.6%
Fbg [1]: 245.2 mg/dL
Hb [1]: 13.4 g/dL
Ht [1]: 40.2%
Lym [1]: 82.2%
MCH [1]: 21.8 pg
MCHC [1]: 33.4%
MCV [1]: 65.2 fL
Mono [1]: 5%
Neu [1]: 12.2%
PT [1]: 12.1 s
Plat [1]: 115.4 x10_4/uL
RBC [1]: 616.6 x10_4/ul
Ret [1]: 7.3%
WBC [1]: 87 x10_2/uL
KIDNEY_L [1]: 1.1 g
KIDNEY_R [1]: 1.1 g
KIDNEY_TOTAL [1]: 2.1 g
LIVER [1]: 11.5 g
A/G [1]: 1.7
ALP [1]: 962 IU/L
ALT [1]: 18.6 IU/L
AST [1]: 55 IU/L
BUN [1]: 17.2 mg/dL
CRE [1]: 0.5 mg/dL
Ca [1]: 10.9 mg/dL
Cl [1]: 103.4 meq/L
DBIL [1]: 0.014 mg/dL
GLC [1]: 204.2 mg/dL
IP [1]: 8.6 mg/dL
K [1]: 5 meq/L
LDH [1]: 93.4 IU/L
Na [1]: 140.6 meq/L
PL [1]: 158.6 mg/dL
RALB [1]: 3.7 g/dL
TBIL [1]: 0.3 mg/dL
TC [1]: 81.4 mg/dL
TG [1]: 104.6 mg/dL
TP [1]: 6 g/dL
gamma-GTP [1]: 1 IU/L
TERMINAL_BW [2]: 244.8 g
TERMINAL_BW [3]: 283.5 g
TERMINAL_BW [4]: 361.7 g
APTT [2]: 16.2 s
Bas [2]: 0%
Eos [2]: 1%
Fbg [2]: 234.8 mg/dL
Hb [2]: 13.6 g/dL
Ht [2]: 40.6%
Lym [2]: 84.2%
MCH [2]: 21.2 pg
MCHC [2]: 33.5%
MCV [2]: 63.2 fL
Mono [2]: 6.6%
Neu [2]: 8.8%
PT [2]: 12.2 s
Plat [2]: 121.4 x10_4/uL
RBC [2]: 641.8 x10_4/ul
Ret [2]: 6.3%
WBC [2]: 150.1 x10_2/uL
APTT [3]: 15.7 s
Bas [3]: 0%
Eos [3]: 0.8%
Fbg [3]: 221.4 mg/dL
Hb [3]: 13.9 g/dL
Ht [3]: 41.4%
Lym [3]: 83.4%
MCH [3]: 19.7 pg
MCHC [3]: 33.6%
MCV [3]: 58.6 fL
Mono [3]: 4.6%
Neu [3]: 10.8%
PT [3]: 12.1 s
Plat [3]: 125.3 x10_4/uL
RBC [3]: 706.6 x10_4/ul
Ret [3]: 5.1%
WBC [3]: 172.6 x10_2/uL
APTT [4]: 16.3 s
Bas [4]: 0%
Eos [4]: 1.4%
Fbg [4]: 227.4 mg/dL
Hb [4]: 14.4 g/dL
Ht [4]: 42.8%
Lym [4]: 80.6%
MCH [4]: 18.6 pg
MCHC [4]: 33.8%
MCV [4]: 55 fL
Mono [4]: 3.6%
Neu [4]: 14.4%
PT [4]: 12.2 s
Plat [4]: 119.2 x10_4/uL
RBC [4]: 780 x10_4/ul
Ret [4]: 2.9%
WBC [4]: 151.6 x10_2/uL
KIDNEY_L [2]: 1.1 g
KIDNEY_R [2]: 1.1 g
KIDNEY_TOTAL [2]: 2.2 g
KIDNEY_L [3]: 1.2 g
KIDNEY_R [3]: 1.2 g
KIDNEY_TOTAL [3]: 2.5 g
KIDNEY_L [4]: 1.4 g
KIDNEY_R [4]: 1.5 g
KIDNEY_TOTAL [4]: 2.9 g
LIVER [2]: 11.5 g
LIVER [3]: 12.7 g
LIVER [4]: 15.3 g
A/G [2]: 1.6
ALP [2]: 823.2 IU/L
ALT [2]: 15.4 IU/L
AST [2]: 56.6 IU/L
BUN [2]: 18.4 mg/dL
CRE [2]: 0.5 mg/dL
Ca [2]: 10.3 mg/dL
Cl [2]: 105.4 meq/L
DBIL [2]: 0.052 mg/dL
GLC [2]: 215.4 mg/dL
IP [2]: 8.4 mg/dL
K [2]: 4.9 meq/L
LDH [2]: 92.2 IU/L
Na [2]: 139.4 meq/L
PL [2]: 134.8 mg/dL
RALB [2]: 3.6 g/dL
TBIL [2]: 0.3 mg/dL
TC [2]: 70.4 mg/dL
TG [2]: 91.6 mg/dL
TP [2]: 5.9 g/dL
gamma-GTP [2]: 1 IU/L
A/G [3]: 1.7
ALP [3]: 722 IU/L
ALT [3]: 11.8 IU/L
AST [3]: 53.4 IU/L
BUN [3]: 19.6 mg/dL
CRE [3]: 0.5 mg/dL
Ca [3]: 10.4 mg/dL
Cl [3]: 106 meq/L
DBIL [3]: 0.04 mg/dL
GLC [3]: 217.2 mg/dL
IP [3]: 8 mg/dL
K [3]: 5.1 meq/L
LDH [3]: 92 IU/L
Na [3]: 138.6 meq/L
PL [3]: 140.4 mg/dL
RALB [3]: 3.8 g/dL
TBIL [3]: 0.4 mg/dL
TC [3]: 70 mg/dL
TG [3]: 94.8 mg/dL
TP [3]: 6.1 g/dL
gamma-GTP [3]: 1 IU/L
A/G [4]: 1.4
ALP [4]: 589.6 IU/L
ALT [4]: 11.6 IU/L
AST [4]: 55.2 IU/L
BUN [4]: 20.2 mg/dL
CRE [4]: 0.5 mg/dL
Ca [4]: 10 mg/dL
Cl [4]: 104.6 meq/L
DBIL [4]: 0.024 mg/dL
GLC [4]: 222.6 mg/dL
IP [4]: 6.9 mg/dL
K [4]: 4.5 meq/L
LDH [4]: 75.8 IU/L
Na [4]: 140.6 meq/L
PL [4]: 141.8 mg/dL
RALB [4]: 3.6 g/dL
TBIL [4]: 0.2 mg/dL
TC [4]: 68.6 mg/dL
TG [4]: 105.4 mg/dL
TP [4]: 6.2 g/dL
gamma-GTP [4]: 1 IU/L
TERMINAL_BW [5]: 211.3 g
APTT [5]: 15.3 s
Bas [5]: 0%
Eos [5]: 0.8%
Fbg [5]: 228.6 mg/dL
Hb [5]: 13.5 g/dL
Ht [5]: 40.4%
Lym [5]: 78.4%
MCH [5]: 21.5 pg
MCHC [5]: 33.5%
MCV [5]: 64.1 fL
Mono [5]: 4.6%
Neu [5]: 16%
PT [5]: 12 s
Plat [5]: 140.8 x10_4/uL
RBC [5]: 629.8 x10_4/ul
Ret [5]: 6.5%
WBC [5]: 96.9 x10_2/uL
KIDNEY_L [5]: 1 g
KIDNEY_R [5]: 1.1 g
KIDNEY_TOTAL [5]: 2.1 g
LIVER [5]: 10.5 g
A/G [5]: 1.9
ALP [5]: 722.8 IU/L
ALT [5]: 10.6 IU/L
AST [5]: 44.4 IU/L
BUN [5]: 19 mg/dL
CRE [5]: 0.5 mg/dL
Ca [5]: 10.6 mg/dL
Cl [5]: 104.8 meq/L
DBIL [5]: 0.006 mg/dL
GLC [5]: 209.6 mg/dL
IP [5]: 7.6 mg/dL
K [5]: 5.1 meq/L
LDH [5]: 95.8 IU/L
Na [5]: 140.2 meq/L
PL [5]: 140.6 mg/dL
RALB [5]: 3.8 g/dL
TBIL [5]: 0.3 mg/dL
TC [5]: 78.6 mg/dL
TG [5]: 63 mg/dL
TP [5]: 5.8 g/dL
gamma-GTP [5]: 1.4 IU/L
TERMINAL_BW [6]: 228.8 g
TERMINAL_BW [7]: 255.7 g
TERMINAL_BW [8]: 314.6 g
APTT [6]: 16.3 s
Bas [6]: 0%
Eos [6]: 0.6%
Fbg [6]: 236.4 mg/dL
Hb [6]: 13.6 g/dL
Ht [6]: 40.5%
Lym [6]: 81.4%
MCH [6]: 20 pg
MCHC [6]: 33.5%
MCV [6]: 59.7 fL
Mono [6]: 4.6%
Neu [6]: 13.2%
PT [6]: 12.1 s
Plat [6]: 138 x10_4/uL
RBC [6]: 678.2 x10_4/ul
Ret [6]: 4.7%
WBC [6]: 126.4 x10_2/uL
APTT [7]: 16.2 s
Bas [7]: 0%
Eos [7]: 1.2%
Fbg [7]: 212.8 mg/dL
Hb [7]: 13.3 g/dL
Ht [7]: 39.7%
Lym [7]: 73.4%
MCH [7]: 18.9 pg
MCHC [7]: 33.6%
MCV [7]: 56.2 fL
Mono [7]: 5.8%
Neu [7]: 19.8%
PT [7]: 12.3 s
Plat [7]: 134 x10_4/uL
RBC [7]: 707.4 x10_4/ul
Ret [7]: 5.4%
WBC [7]: 130.8 x10_2/uL
APTT [8]: 15.9 s
Bas [8]: 0%
Eos [8]: 0.8%
Fbg [8]: 226.2 mg/dL
Hb [8]: 13 g/dL
Ht [8]: 39%
Lym [8]: 84.2%
MCH [8]: 16.6 pg
MCHC [8]: 33.2%
MCV [8]: 50 fL
Mono [8]: 5.5%
Neu [8]: 9.2%
PT [8]: 12.2 s
Plat [8]: 130.1 x10_4/uL
RBC [8]: 781.8 x10_4/ul
Ret [8]: 3.8%
WBC [8]: 181.2 x10_2/uL
KIDNEY_L [6]: 1.2 g
KIDNEY_R [6]: 1.2 g
KIDNEY_TOTAL [6]: 2.3 g
KIDNEY_L [7]: 1.2 g
KIDNEY_R [7]: 1.2 g
KIDNEY_TOTAL [7]: 2.3 g
KIDNEY_L [8]: 1.4 g
KIDNEY_R [8]: 1.4 g
KIDNEY_TOTAL [8]: 2.8 g
LIVER [6]: 11.1 g
LIVER [7]: 12.1 g
LIVER [8]: 12.6 g
A/G [6]: 1.6
ALP [6]: 757.4 IU/L
ALT [6]: 8.6 IU/L
AST [6]: 46.8 IU/L
BUN [6]: 16.2 mg/dL
CRE [6]: 0.5 mg/dL
Ca [6]: 10.4 mg/dL
Cl [6]: 105 meq/L
DBIL [6]: 0.028 mg/dL
GLC [6]: 212.2 mg/dL
IP [6]: 8 mg/dL
K [6]: 5.1 meq/L
LDH [6]: 77.6 IU/L
Na [6]: 140.6 meq/L
PL [6]: 127.8 mg/dL
RALB [6]: 3.8 g/dL
TBIL [6]: 0.3 mg/dL
TC [6]: 64.4 mg/dL
TG [6]: 62.2 mg/dL
TP [6]: 6.1 g/dL
gamma-GTP [6]: 1.2 IU/L
A/G [7]: 1.7
ALP [7]: 587.6 IU/L
ALT [7]: 8.8 IU/L
AST [7]: 48.4 IU/L
BUN [7]: 20.4 mg/dL
CRE [7]: 0.6 mg/dL
Ca [7]: 10.3 mg/dL
Cl [7]: 106.8 meq/L
DBIL [7]: 0.004 mg/dL
GLC [7]: 210.8 mg/dL
IP [7]: 7.8 mg/dL
K [7]: 5.1 meq/L
LDH [7]: 123.4 IU/L
Na [7]: 139.8 meq/L
PL [7]: 123.2 mg/dL
RALB [7]: 3.7 g/dL
TBIL [7]: 0.3 mg/dL
TC [7]: 60.2 mg/dL
TG [7]: 61.8 mg/dL
TP [7]: 5.9 g/dL
gamma-GTP [7]: 0.2 IU/L
A/G [8]: 1.6
ALP [8]: 533 IU/L
ALT [8]: 6.8 IU/L
AST [8]: 49.8 IU/L
BUN [8]: 19.5 mg/dL
CRE [8]: 0.6 mg/dL
Ca [8]: 9.9 mg/dL
Cl [8]: 106 meq/L
DBIL [8]: 0.0525 mg/dL
GLC [8]: 212.5 mg/dL
IP [8]: 6.7 mg/dL
K [8]: 4.9 meq/L
LDH [8]: 81.2 IU/L
Na [8]: 140.8 meq/L
PL [8]: 108.2 mg/dL
RALB [8]: 3.6 g/dL
TBIL [8]: 0.2 mg/dL
TC [8]: 53.8 mg/dL
TG [8]: 41.8 mg/dL
TP [8]: 5.8 g/dL
gamma-GTP [8]: 1.5 IU/L
